Reference: patent publication US20080318945A1, “Novel Compounds” (priority 2005, published 2008)

What was measured:
[1] = target: T1, TRPV4 channel receptor (Homo sapiens, UniProt Q9HBA0); experiment: FLIPR assay using TRPV4 expressing HEK cells; assay type: cell-based; details: FLIPR method; read-out: pEC50 values (converted)
T1 construct: expressed in transfected cells; host or cells: HEK cells
Text: Other techniques used to measure TRPV4 channel receptor activation in chondrocytes include, but are not limited to: FLIPR assay, measuring a compound's capability to reduce the amount of ADAMTSs produced and/or released in response to a catabolic stimulus by a cell comprising a TRPV4 channel receptor; measuring a compound's capability to reduce the amount of MMPs produced and/or released in response to a catabolic stimulus by a cell comprising a TRPV4 channel receptor; measuring a compound's capability to effect the amount of nitric oxide (NO) produced in response to a catabolic stimulus by a cell comprising a TRPV4 channel receptor; and measuring a compound's capability to attenuate the inhibition of matrix synthesis in response to a catabolic stimulus by a cell comprising a TRPV4 channel receptor.
(§1) All exemplary compounds of the present invention were assessed using at least one of the biological assays presented above. Compounds presented in the Examples had EC50 values of about 0.0001 μM to 1 μM as measured by Flex Station using bovine articular chondrocytes and pEC50 values between about 6.0 to 9.1 as measured by FLIPR assay using TRPV4 expressing HEK cells.

[2] = target: T2, TRPV4 channel receptors (Bos taurus, UniProt A0A8F4X677); experiment: Ca2+ influx by Fura-2 fluorescence on FlexStation in bovine articular chondrocytes; assay type: cell-based
T2 construct: obtained using this method in bovine articular chondrocytes; endogenous in cells; host or cells: bovine articular chondrocytes
Text: Ca^2+ influx mediated through TRPV4 channel receptors can be measured using articular chondrocytes from such species as, but not limited to, human, rat, canine, rabbit, monkey, and bovine, using standard techniques in the art such as, but not limited to, Fura-2 (Invitrogen/Molecular Probes, Eugene, Oreg.) fluorescence using a FlexStation (manufactured by Molecular Devices, Sunnyvale, Calif.). Table 1 lists biological data for several representative compounds obtained using this method in bovine articular chondrocytes.
as §1

T1 sequence (Q9HBA0 whole entry): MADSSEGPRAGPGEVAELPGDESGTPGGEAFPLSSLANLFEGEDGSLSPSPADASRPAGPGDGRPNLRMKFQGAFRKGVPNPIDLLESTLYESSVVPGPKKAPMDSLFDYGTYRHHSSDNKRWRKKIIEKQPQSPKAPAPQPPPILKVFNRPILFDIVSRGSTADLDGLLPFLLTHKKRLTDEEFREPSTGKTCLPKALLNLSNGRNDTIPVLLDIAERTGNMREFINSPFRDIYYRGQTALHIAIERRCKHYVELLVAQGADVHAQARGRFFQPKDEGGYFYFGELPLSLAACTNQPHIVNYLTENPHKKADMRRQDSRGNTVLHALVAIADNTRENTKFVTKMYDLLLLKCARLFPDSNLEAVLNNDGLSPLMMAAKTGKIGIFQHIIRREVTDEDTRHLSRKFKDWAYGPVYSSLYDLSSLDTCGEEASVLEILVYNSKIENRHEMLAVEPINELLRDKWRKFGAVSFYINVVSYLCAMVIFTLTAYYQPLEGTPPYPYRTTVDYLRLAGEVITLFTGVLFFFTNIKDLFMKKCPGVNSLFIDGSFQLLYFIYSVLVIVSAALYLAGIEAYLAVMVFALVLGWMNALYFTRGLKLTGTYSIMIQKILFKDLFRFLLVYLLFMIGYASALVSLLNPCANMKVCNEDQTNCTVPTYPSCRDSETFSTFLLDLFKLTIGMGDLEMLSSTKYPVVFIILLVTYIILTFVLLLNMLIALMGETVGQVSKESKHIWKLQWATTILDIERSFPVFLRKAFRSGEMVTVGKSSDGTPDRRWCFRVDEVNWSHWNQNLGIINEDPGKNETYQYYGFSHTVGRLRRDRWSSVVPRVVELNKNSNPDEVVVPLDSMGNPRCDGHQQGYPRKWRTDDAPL
T2 sequence (A0A8F4X677 1-871): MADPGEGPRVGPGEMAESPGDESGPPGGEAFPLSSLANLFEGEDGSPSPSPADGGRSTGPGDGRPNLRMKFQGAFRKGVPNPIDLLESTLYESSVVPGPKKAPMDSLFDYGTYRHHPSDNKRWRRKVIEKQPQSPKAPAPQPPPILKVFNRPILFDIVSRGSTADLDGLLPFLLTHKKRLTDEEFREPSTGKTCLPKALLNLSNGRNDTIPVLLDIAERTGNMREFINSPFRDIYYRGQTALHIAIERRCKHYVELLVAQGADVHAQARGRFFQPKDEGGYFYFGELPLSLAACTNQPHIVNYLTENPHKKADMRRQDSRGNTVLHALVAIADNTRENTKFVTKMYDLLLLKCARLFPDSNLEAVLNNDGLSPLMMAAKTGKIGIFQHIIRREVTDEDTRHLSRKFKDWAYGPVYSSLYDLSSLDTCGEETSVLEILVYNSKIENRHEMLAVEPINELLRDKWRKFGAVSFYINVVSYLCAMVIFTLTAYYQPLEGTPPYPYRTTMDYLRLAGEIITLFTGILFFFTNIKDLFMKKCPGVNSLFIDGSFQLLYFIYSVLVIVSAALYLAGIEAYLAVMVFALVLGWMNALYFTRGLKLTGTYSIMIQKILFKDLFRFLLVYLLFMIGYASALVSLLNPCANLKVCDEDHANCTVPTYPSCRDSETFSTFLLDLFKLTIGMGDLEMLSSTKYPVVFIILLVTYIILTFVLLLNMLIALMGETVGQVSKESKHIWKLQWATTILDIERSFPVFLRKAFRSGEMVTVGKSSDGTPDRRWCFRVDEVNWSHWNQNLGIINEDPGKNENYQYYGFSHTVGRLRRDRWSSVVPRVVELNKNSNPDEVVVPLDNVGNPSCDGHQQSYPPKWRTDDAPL

SMILES: CC(C)C[C@H](NC(=O)c1cc2ccccc2s1)C(=O)N1CCN(CCNS(=O)(=O)c2ccc(Cl)cc2Cl)CC1 [Example 1, N-((1S)-1-{[4-(2-{[(2,4-Dichlorophenyl)sulfonyl]amino}ethyl)-1-piperazinyl]carbonyl}-3-methylbutyl)-1-benzothiophene-2-carboxamide]
- EC50 [1]: 100 to 794 nM
- EC50 [2]: 90 to 5010 nM

SMILES: CC(C)C[C@H](NC(=O)c1cc2ccccc2s1)C(=O)N1CCN(C(=O)CNS(=O)(=O)c2ccc(Cl)cc2Cl)CC1 [Example 3, N-((1S)-1-{[4-({[(2,4-Dichlorophenyl)sulfonyl]amino}acetyl)-1-piperazinyl]carbonyl}-3-methylbutyl)-1-benzothiophene-2-carboxamide]
- EC50 [1]: 10 to 79.4 nM
- EC50 [2]: 20 to 89 nM

SMILES: CC(C)C[C@H](NC(=O)c1cc2ccccc2s1)C(=O)N1CCN(C(=O)[C@H](C)NS(=O)(=O)c2ccc(Cl)cc2Cl)CC1 [Example 9, N-((1S)-1-{[4-((2S)-2-{[(2,4-dichlorophenyl)sulfonyl]amino}propanoyl)-1-piperazinyl]carbonyl}-3-methylbutyl)-1-benzothiophene-2-carboxamide]
- EC50 [1]: < 7.94 nM
- EC50 [2]: 0.1 to 19 nM
